Reference: patent US20170354177A1, “ANTIFUNGAL COMPOSITION COMPRISING ANTIFUNGAL PEPTIDE AND TERPENE ALCOHOL” (MARUHA NICHIRO CORPORATION, priority 2014, published 2017)

Key:
[1] = test system: Candida albicans TIMM1768; assay: In vitro screening of material performing synergistic effect (10 min contact, crystal violet staining, absorbance 620 nm); assay type: cell-based; conditions: for synergistic effect by the combined use with a protamine hydrolysate: combined with protamine hydrolysate 0.125 or 2.0 mg/mL; for antibacterial activity in single use (relative absorbance, blank = 1): 0.008-1 mg/mL
Excerpt: Candida albicans TIMM1768
Hinokitiol (manufactured by Kiseitech Co., Ltd.), terpinen-4-ol (manufactured by Tokyo Chemical Industry, Co., Ltd.), geraniol (manufactured by Kanto Chemical Co., Inc.), menthol (manufactured by Wako Pure Chemical Industries, Ltd.), cinnamaldehyde (manufactured by Wako Pure Chemical Industries, Ltd.) and capric acid (manufactured by Wako Pure Chemical Industries, Ltd.) were individually dissolved in RPMI medium so that the concentration in a test material was 0.008, 0.04, 0.2, 1 mg/mL, and the protamine hydrolysate prepared according to Example 1 was dissolved so that the concentration of the protamine hydrolysate in a test material was 0, 0.125, 2.0 mg/mL, and the solutions were subjected to the test. Further, 0.002, 0.008, 0.031, 0.125, 0.5, 2, 8, 32 mg/mL solutions using the protamine hydrolysate singly were subjected to the test. Evaluation method
C. albicans TIMM1768 strain was added to a 96 well microplate each in an amount of 200 μL so that 2.5×10^5 cells/well, and cultured for 2.5 to 3.5 hours at 37° C. under 5% CO2. After cultivation, each medium was removed under suction, and each test material was added in an amount of 200 μL/well. After allowing to stand still at 37° C. for 10 minutes, each sample solution was removed under suction, and RPMI medium was added in an amount of 200 μL/well, and cultured for 2.5 hours at 37° C. under 5% CO2. After cultivation, each sample was stained with crystal violet and the absorbance at 620 nm was measured. The antibacterial activity was expressed in terms of the relative value of each experimental section when the blank absorbance was 1.
The results of in vitro evaluation when using a protamine hydrolysate and terpene alcohols in combination are shown in FIGS. 1 to 6, and the result of in vitro evaluation when using a protamine hydrolysate singly is shown in FIG. 7. In FIGS. 1 to 6, ♦ represents the result of single use of terpene alcohols, ▪ represents the result of the combined use with a protamine hydrolysate 0.125 mg/ml, and ▴ represents the result of the combined use with a protamine hydrolysate 2.0 mg/ml, respectively.

[2] = test system: Candida albicans TIMM1768; assay: In vitro combined use of protamine hydrolysate and Hinokitiol (16 h culture, crystal violet), IC90 and FIC index; assay type: cell-based; conditions: TIMM1768, Pro 0, none printed in the table, read-out: IC90 of hinokitiol alone
Protocol: FIC index=A1/A0+B1/B0 (1) • A0: MIC when agent A is used alone • A1: MIC of agent A when agent A and agent B are used in combination • B0: MIC when agent B is used alone • B1: MIC of agent B when agent A and agent B are used in combination Evaluation of synergistic effect by FIC index • FIC≦0.5: synergistic effect • 0.5<FIC≦1.0: additive effect • 1.0<FIC≦2.0: no relation • 2.0<FIC: antagonistic effect
Hinokitiol (manufactured by Kiseitech Co., Ltd.) was dissolved in RPMI medium so that the concentration in each test material was 0, 0.004, 0.008, 0.016, 0.031, 0.063, 0.125, 0.25, 0.5, or 1 μg/mL, and the protamine hydrolysate prepared according to Example 1 was dissolved so that the concentration of the protamine hydrolysate in each test material was 0, 0.156, 0.313, 0.625, 1.25, 2.5, 5, or 10 μg/mL, and they were subjected to the test.
C. albicans TIMM1768 strain was diluted with RPMI medium so that 5.0×10^3 cells/m L, then, added to a 96 well microplate each in an amount of 100 μL. The protamine hydrolysate solution was added each in an amount of 50 μL/well, then, Hinokitiol was added each in an amount of 50 μL/well. After cultivation for 16 hours at 37° C. under 5% CO2, each sample was stained with crystal violet and the absorbance at 620 nm was measured.

| SMILES | synergistic effect by the combined use with a protamine hydrolysate [1] | antibacterial activity in single use (relative absorbance, blank = 1) [1] | IC90 [2] |
| --- | --- | --- | --- |
| CC1=CCC(O)(C(C)C)CC1 (stereo not shown) [terpinen-4-ol] | the activity was slightly improved by the combined use with a protamine hydrolysate | low activity |  |
| CC(C)c1cccc(=O)c(O)c1 [Hinokitiol] | a synergistic effect of improving activity by the combined use with a protamine hydrolysate was recognized | showed an antibacterial activity even in the single use | 0.77 µg/mL |
| CC(C)=CCC/C(C)=C/CO [geraniol] | the activity was slightly improved by the combined use with a protamine hydrolysate | low activity |  |
| CCCCCCCCCC(=O)O [capric acid, reference compound] | the synergistic effect by the combined use with a protamine hydrolysate was not recognized | little antibacterial activity |  |
| O=CC=Cc1ccccc1 [Cinnamaldehyde, cinnamaldehyde, reference compound] | the synergistic effect by the combined use with a protamine hydrolysate was not recognized | little antibacterial activity |  |
| CC1CCC(C(C)C)C(O)C1 (stereo not shown) [menthol] | the activity was slightly improved by the combined use with a protamine hydrolysate | low activity |  |
